These results are taken from patent US20230181905A1, “Systems, Devices, and Methods for Enhancing the Neuroprotective Effects of Non-Invasive Gamma Stimulation with Pharmacological Agents” (Massachusetts Institute of Technology, priority 2021, published 2023).

For this experiment, the system named is gene expression in microglia, oligodendrocytes, neurons and astrocytes. The experiment can be described thus: Single-cell and single-nucleus RNA sequencing of brain tissue. The format is in vivo, mouse. As to conditions: 5×FAD mice. The procedure:
Gene expression changes in microglia are strongly associated with AD pathogenesis. Thus, the effect of these treatments on gene expression using single-cell RNA sequencing was investigates (10× Genomics, #Chromium Next GEM Single Cell 3′ Kit v3.1, 16 rxns PN-1000268). […] The gene expression changes between treatment conditions in the microglia cluster were examined. […] Further, due to the depth of the gene expression analysis sub-clustering of microglia was performed.
As neurons were not represented from the single-cell RNA-sequencing (FIGS. 8A-12), to study the effect of these treatments on gene expression in neurons, single nucleus RNA-sequencing was performed (10× Genomics, #Chromium Next GEM Kit v3.1, 16 rxns PN-1000268). […] The gene expression changes between treatment conditions in the interneurons cluster were examined.
Mice were killed and the brain tissue was freshly dissected out and the single cell suspension or nuclei was prepared. Single cell RNA libraries were prepared using the Chromium Next GEM Single Cell 3′ Kit v3.1 according to the manufacturer's protocol (10× Genomics). The generated scRNA-seq libraries were sequenced using NovaSeq. Gene counts were obtained by aligning reads to the mouse genome. […]
RNA sequencing: The animals and brain tissues were prepared, and then the single nuclei from the brain tissue was then obtained. […] The RNA-seq data was analyzed in R package. […]

Consider `FC(F)(F)c1ccc(CNc2ccc(Cc3c[nH]c4ncc(Cl)cc34)cn2)cn1` [Plx3397, Pexidartinib], for which the “genes related to Tyrobp-trem2-Apoe pathway in microglia” value (single-cell RNA sequencing, microglia cluster) was “upregulated”. Also, for the setting “visual cortex, snRNA-seq”, the “abnormal synaptic transmission genes in E-neurons” value is reported as “upregulated”.
